According to patent US6352958B1, “Cycloimido-substituted benzofused heterocyclic herbicides” (FMC Corporation, priority 1997, dated 2002):

Columns and labels:
Type in all cases: in vivo
[1] = system: field corn (Zea mays var. Pioneer 3732); experiment: Preemergence herbicidal activity, corn; conditions: Rate of Application 0.3 Kg/Ha, examined after 12-17 days
[2] = system: field corn (Zea mays var. Pioneer 3732); experiment: Postemergence herbicidal activity, corn; conditions: rate of application 0.3 Kg/Ha, rated after 12-17 days
[3] = system: Johnsongrass (Sorghum halepense); experiment: Preemergence herbicidal activity, johnsongrass; conditions: Rate of Application 0.3 Kg/Ha, examined after 12-17 days
[4] = system: velvetleaf (Abutilon theophrasti); experiment: Preemergence herbicidal activity, velvetleaf; conditions: Rate of Application 0.3 Kg/Ha, examined after 12-17 days
[5] = system: common chickweed (Stellaria media); experiment: Postemergence herbicidal activity, chickweed; conditions: rate of application 0.3 Kg/Ha, rated after 12-17 days
[6] = system: morningglory (Ipomea lacunosa or Ipomea hederacea); experiment: Preemergence herbicidal activity, morningglory; conditions: Rate of Application 0.3 Kg/Ha, examined after 12-17 days
[7] = system: velvetleaf (Abutilon theophrasti); experiment: Postemergence herbicidal activity, velvetleaf; conditions: rate of application 0.3 Kg/Ha, rated after 12-17 days
[8] = system: soybean (Glycine max var. Winchester); experiment: Preemergence herbicidal activity, soybean; conditions: Rate of Application 0.3 Kg/Ha, examined after 12-17 days
[9] = system: common cocklebur (Xanthium strumarium L.); experiment: Preemergence herbicidal activity, cocklebur; conditions: Rate of Application 0.3 Kg/Ha, examined after 12-17 days
[10] = system: wheat (Triticum aestivum var. Lew); experiment: Postemergence herbicidal activity, wheat; conditions: rate of application 0.3 Kg/Ha, rated after 12-17 days
[11] = system: blackgrass (Aloepecurus myosuroides); experiment: Postemergence herbicidal activity, blackgrass; conditions: rate of application 0.3 Kg/Ha, rated after 12-17 days
[12] = system: common cocklebur (Xanthium strumarium L.); experiment: Postemergence herbicidal activity, cocklebur; conditions: rate of application 0.3 Kg/Ha, rated after 12-17 days
[13] = system: Johnsongrass (Sorghum halepense); experiment: Postemergence herbicidal activity, johnsongrass; conditions: rate of application 0.3 Kg/Ha, rated after 12-17 days
[14] = system: green foxtail (Setaria viridis); experiment: Preemergence herbicidal activity, green foxtail; conditions: Rate of Application 0.3 Kg/Ha, examined after 12-17 days
[15] = system: blackgrass (Aloepecurus myosuroides); experiment: Preemergence herbicidal activity, blackgrass; conditions: Rate of Application 0.3 Kg/Ha, examined after 12-17 days
[16] = system: wheat (Triticum aestivum var. Lew); experiment: Preemergence herbicidal activity, wheat; conditions: Rate of Application 0.3 Kg/Ha, examined after 12-17 days
[17] = system: common chickweed (Stellaria media); experiment: Preemergence herbicidal activity, chickweed; conditions: Rate of Application 0.3 Kg/Ha, examined after 12-17 days
[18] = system: soybean (Glycine max var. Winchester); experiment: Postemergence herbicidal activity, soybean; conditions: rate of application 0.3 Kg/Ha, rated after 12-17 days
[19] = system: morningglory (Ipomea lacunosa or Ipomea hederacea); experiment: Postemergence herbicidal activity, morningglory; conditions: rate of application 0.3 Kg/Ha, rated after 12-17 days
[20] = system: green foxtail (Setaria viridis); experiment: Postemergence herbicidal activity, green foxtail; conditions: rate of application 0.3 Kg/Ha, rated after 12-17 days

Structure (SMILES)	PREEMERGENCE HERBICIDAL ACTIVITY (% CONTROL) CRN [1] [%]	Postemergence herbicidal activity (% control) CRN [2] [%]	PREEMERGENCE HERBICIDAL ACTIVITY (% CONTROL) SORHA [3] [%]	PREEMERGENCE HERBICIDAL ACTIVITY (% CONTROL) ABUTH [4] [%]	Postemergence herbicidal activity (% control) STEME [5] [%]	PREEMERGENCE HERBICIDAL ACTIVITY (% CONTROL) IPOSS [6] [%]	Postemergence herbicidal activity (% control) ABUTH [7] [%]	PREEMERGENCE HERBICIDAL ACTIVITY (% CONTROL) SOY [8] [%]	PREEMERGENCE HERBICIDAL ACTIVITY (% CONTROL) XANPE [9] [%]	Postemergence herbicidal activity (% control) WHT [10] [%]	Postemergence herbicidal activity (% control) ALOMY [11] [%]	Postemergence herbicidal activity (% control) XANPE [12] [%]	Postemergence herbicidal activity (% control) SORHA [13] [%]	PREEMERGENCE HERBICIDAL ACTIVITY (% CONTROL) SETVI [14] [%]	PREEMERGENCE HERBICIDAL ACTIVITY (% CONTROL) ALOMY [15] [%]	PREEMERGENCE HERBICIDAL ACTIVITY (% CONTROL) WHT [16] [%]	PREEMERGENCE HERBICIDAL ACTIVITY (% CONTROL) STEME [17] [%]	Postemergence herbicidal activity (% control) SOY [18] [%]	Postemergence herbicidal activity (% control) IPOSS [19] [%]	Postemergence herbicidal activity (% control) SETVI [20] [%]
Cn1c(C(F)(F)F)cc(=O)n(-c2ccc(Cl)c3cc(-c4ccccc4)oc23)c1=O [Compound 264]	10	50	10	20	0	0	40	0	30	20	0	30	20	10	0	0	20	50	40	–
CNC(=O)c1cc2c(Cl)cc(F)c(-n3c(=O)cc(C(F)(F)F)n(C)c3=O)c2o1 [Compound 274]	90	95	100	100	90	100	100	100	100	60	90	100	100	100	95	100	90	95	100	100
Cn1c(C(F)(F)F)cc(=O)n(-c2c(F)cc(Cl)c3oc(C(C)(C)C)nc23)c1=O [Compound 30]	95	90	100	100	100	100	100	100	90	80	90	100	100	100	100	100	100	95	100	100
CNC(=O)OC(C)c1cc2c(Cl)cc(F)c(-n3c(=O)cc(C(F)(F)F)n(C)c3=O)c2o1 (stereo not shown) [Compound 249]	95	100	100	100	100	100	100	100	90	80	100	100	–	10	80	80	100	95	100	100
CC(C)C(=O)OC(C)c1cc2c(Cl)cc(F)c(-n3c(=O)cc(C(F)(F)F)n(C)c3=O)c2o1 (stereo not shown) [Compound 247]	90	100	100	100	100	100	100	100	100	80	100	100	–	100	85	90	95	95	100	100
Cn1c(C(F)(F)F)cc(=O)n(-c2c(F)cc(Cl)c3cc(C(C)(C)C)oc23)c1=O [Compound 227]	90	90	100	100	100	100	100	100	–	60	100	100	100	100	95	80	100	95	100	100
CC(C)c1cc2c(Cl)cc(F)c(-n3c(=O)cc(C(F)(F)F)n(C)c3=O)c2o1 [Compound 224]	90	100	100	100	100	100	100	100	95	70	90	100	–	100	80	80	100	95	100	100
CC(OC(C)(C)C)c1cc2c(Cl)cc(F)c(-n3c(=O)cc(C(F)(F)F)n(C)c3=O)c2o1 (stereo not shown) [Compound 244]	100	90	100	100	100	90	100	95	100	60	75	100	–	100	70	80	70	95	100	100
